Laboratory results: ChEMBL document CHEMBL4038316, “Enantioselective Synthesis and in Vivo Evaluation of Regioisomeric Analogues of the Antimalarial Arterolane” (J Med Chem, 2017)
Values after ≈ are worked out from the molar mass of the structure shown.

What was measured:
Liver [1] = experiment: (§1) Half life in mouse liver microsomes; assay type: ADME, microsome; conditions: microsomes
Plasmodium falciparum [2] = experiment: Antiplasmodial activity against chloroquine-resistant Plasmodium falciparum W2 infected in human RBC after 48 hrs by YOYO-1 staining-based flow cytometry method; assay type: functional; conditions: W2, 48 h
Liver [3] = conditions: mouse, microsomes
Description: (§3) Intrinsic clearance in mouse liver microsomes assessed per mg of protein

Liver [4] = experiment: Metabolic stability in mouse liver microsomes in absence of NADPH; assay type: ADME, microsome
Plasmodium berghei [5] = experiment: Antiplasmodial activity against Plasmodium berghei infected in Swiss Webster mouse assessed as cure rate at 6 mg/kg/day administered for 4 days via oral gavage starting at 1 hr post infection measured after 30 days relative to control; assay type: functional
Plasmodium berghei [6] = experiment: Antiplasmodial activity against Plasmodium berghei infected in Swiss Webster mouse assessed as cure rate at 4 mg/kg/day administered for 4 days via oral gavage starting at 1 hr post infection measured after 30 days relative to control; assay type: functional
[7] = as §1; assay type: ADME, microsome; conditions: liver microsomes
in vitro = conditions: mouse, liver microsomes
Description: as §3

Plasmodium berghei [8] = experiment: Antiplasmodial activity against Plasmodium berghei infected in Swiss Webster mouse assessed as cure rate at 13.6 mg/kg/day administered for 4 days via oral gavage starting at 1 hr post infection measured after 30 days relative to control; assay type: functional
Plasmodium falciparum [9] = experiment: Antiplasmodial activity against Plasmodium falciparum Cam3.2_rev infected in human RBC assessed as time required to reduce early ring stage parasite viability by 50% by SYTO 61-staining-based flow cytometry; assay type: functional
Plasmodium falciparum [10] = experiment: Antiplasmodial activity against Plasmodium falciparum Cam3.2 infected in human RBC assessed as time required to reduce early ring stage parasite viability by 50% by SYTO 61-staining-based flow cytometry; assay type: functional
[11] = buffer, pH 7.4
Description: (§4) Kinetic solubility of the compound in PBS at pH 7.4

Liver [12] = experiment: (§2) Half life in mouse liver microsomes in absence of NADPH; assay type: ADME, microsome; conditions: microsomes
Plasmodium berghei [13] = experiment: Antiplasmodial activity against Plasmodium berghei infected in Swiss Webster mouse assessed as increase in cure rate administered for 4 days via oral gavage starting at 1 hr post infection measured after 30 days; assay type: functional; conditions: for ED50: Plasmodium berghei, po, read-out: PD50
Plasmodium berghei [14] = experiment: Antiplasmodial activity against Plasmodium berghei infected in Swiss Webster mouse assessed as cure rate at 40 mg/kg/day administered for 2 days via oral gavage starting at 1 hr post infection measured after 30 days relative to control; assay type: functional
Plasmodium berghei [15] = experiment: Antiplasmodial activity against Plasmodium berghei infected in Swiss Webster mouse assessed as cure rate at 2 mg/kg/day administered for 4 days via oral gavage starting at 1 hr post infection measured after 30 days relative to control; assay type: functional
Plasmodium berghei [16] = experiment: Antiplasmodial activity against Plasmodium berghei infected in Swiss Webster mouse assessed as cure rate at 1 mg/kg/day administered for 4 days via oral gavage starting at 1 hr post infection measured after 30 days relative to control; assay type: functional
Plasmodium berghei [17] = experiment: Antiplasmodial activity against Plasmodium berghei infected in Swiss Webster mouse assessed as cure rate at 4 mg/kg/day administered for 1 day via oral gavage starting at 1 hr post infection measured after 30 days relative to control; assay type: functional
Plasmodium berghei [18] = experiment: Antiplasmodial activity against Plasmodium berghei infected in Swiss Webster mouse assessed as cure rate at 0.5 mg/kg/day administered for 4 days via oral gavage starting at 1 hr post infection measured after 30 days relative to control; assay type: functional
Plasmodium berghei [19] = experiment: Antiplasmodial activity against Plasmodium berghei infected in Swiss Webster mouse assessed as cure rate at 4 mg/kg/day administered for 2 days via oral gavage starting at 1 hr post infection measured after 30 days relative to control; assay type: functional
Plasmodium berghei [20] = experiment: Antiplasmodial activity against Plasmodium berghei infected in Swiss Webster mouse assessed as cure rate at 40 mg/kg/day administered for 1 day via oral gavage starting at 1 hr post infection measured after 30 days relative to control; assay type: functional
[21] = as §2; assay type: ADME, microsome; conditions: liver microsomes
Plasmodium berghei [22] = experiment: Antiplasmodial activity against Plasmodium berghei infected in Swiss Webster mouse assessed as cure rate at 4 mg/kg/day administered for 3 days via oral gavage starting at 1 hr post infection measured after 30 days relative to control; assay type: functional
Plasmodium berghei [23] = experiment: Antiplasmodial activity against Plasmodium berghei infected in Swiss Webster mouse assessed as cure rate at 80 mg/kg/day administered for 1 day via oral gavage starting at 1 hr post infection measured after 30 days relative to control; assay type: functional
Plasmodium berghei [24] = experiment: Antiplasmodial activity against Plasmodium berghei infected in Swiss Webster mouse assessed as cure rate at 10 mg/kg/day administered for 4 days via oral gavage starting at 1 hr post infection measured after 30 days relative to control; assay type: functional
Plasmodium berghei [25] = experiment: Antiplasmodial activity against Plasmodium berghei infected in Swiss Webster mouse assessed as cure rate at 9.5 mg/kg/day administered for 4 days via oral gavage starting at 1 hr post infection measured after 30 days relative to control; assay type: functional
physchem = conditions: PBS, pH 7.4
Description: as §4

| SMILES | EC50 (Plasmodium falciparum [2]) [nM] | Stability (Liver [4]) | Activity (Plasmodium berghei [5]) | Activity (Plasmodium berghei [6]) | further results |
| --- | --- | --- | --- | --- | --- |
| NC(=O)CNC(=O)C[C@H]1CC[C@]2(CC1)OO[C@]1(O2)C2CC3CC(C2)CC1C3 | 9.2 | Stable | 0% | 0% | t1/2 (Liver [1]): 2.07 h; CLH (Liver [3]): 5.6 µL/min |
| O=C(C[C@@H]1CCC[C@]2(C1)OOC1(O2)C2CC3CC(C2)CC1C3)N1CCNCC1 (stereo not given in full) | 2.9 | Stable | 20% | 0% | half-life [7]: 0.425 h; microsomal CLint (in vitro): 27.2 µL/min/mg |
| NC(=O)CNC(=O)C[C@@H]1CCC[C@]2(C1)OOC1(O2)C2CC3CC(C2)CC1C3 (stereo not given in full) | 10.6 | Stable | – | – | half-life [7]: 0.622 h; microsomal CLint (in vitro): 18.6 µL/min/mg |
| N[C@H]1CC[C@H](NC(=O)C[C@@H]2CCC[C@]3(C2)OOC2(O3)C3CC4CC(C3)CC2C4)CC1 (stereo not given in full) | 5.9 | – | 100% | 60% | – |
| CC(C)(N)CNC(=O)C[C@H]1CC[C@]2(CC1)OOC1(O2)C2CC3CC(C2)CC1C3.Cc1ccc(S(=O)(=O)O)cc1 (stereo not given in full) | – | – | – | – | Activity (Plasmodium berghei [8]): 100% |
| C[C@H]1[C@@H](O)O[C@@H]2O[C@@]3(C)CC[C@H]4[C@H](C)CC[C@@H]1[C@@]24OO3 [ARTENIMOL] | – | – | – | – | Time (Plasmodium falciparum [9]): 1 h; Time (Plasmodium falciparum [10]): 3 h |
| C[C@]12CC[C@H]3[C@@H](CCC4=CC(=O)CC[C@@]43C)[C@@H]1CC[C@@H]2O [TESTOSTERONE] | – | – | – | – | Kinetic_solubility [11]: 315 µM |
| c1cc([C@H]2CC[C@]3(CC2)OO[C@]2(O3)C3CC4CC(C3)CC2C4)ccc1OCCN1CCOCC1 [ARTEFENOMEL] | – | – | – | – | Time (Plasmodium falciparum [9]): 2 h; Time (Plasmodium falciparum [10]): 5 h |
| O=C(C[C@@H]1CCC[C@]2(C1)OOC1(O2)C2CC3CC(C2)CC1C3)N1CCCCC1 (stereo not given in full) | 31.4 | – | – | – | – |
| NCCNC(=O)C[C@H]1CC[C@]2(CC1)OO[C@]1(O2)C2CC3CC(C2)CC1C3 | 3.6 | – | 20% | 0% | t1/2 (Liver [1]): 1.07 h; CLH (Liver [3]): 10.8 µL/min; t1/2 (Liver [12]): 1.17 h |
| CC(C)(CN)CNC(=O)C[C@@H]1CCC[C@]2(C1)OOC1(O2)C2CC3CC(C2)CC1C3 (stereo not given in full) | 4.1 | Stable | 0% | 0% | half-life [7]: 1.07 h; microsomal CLint (in vitro): 10.8 µL/min/mg |
| NC1CCN(C(=O)C[C@H]2CC[C@]3(CC2)OO[C@]2(O3)C3CC4CC(C3)CC2C4)CC1 | 1.3 | Stable | 100% | 100% | t1/2 (Liver [1]): 4.62 h; CLH (Liver [3]): 2.5 µL/min |
| CN1CCN(C(=O)C[C@H]2CC[C@]3(CC2)OO[C@]2(O3)C3CC4CC(C3)CC2C4)CC1 | 4.9 | – | 0% | 0% | – |
| O=C(O)Cc1ccccc1Nc1c(Cl)cccc1Cl [DICLOFENAC] | – | – | – | – | CLH (Liver [3]): 12.5 µL/min |
| O=C(C[C@H]1CC[C@]2(CC1)OO[C@]1(O2)C2CC3CC(C2)CC1C3)N1CCCCC1 | 57 | – | 0% | 0% | – |
| O=C(C[C@H]1CC[C@]2(CC1)OO[C@]1(O2)C2CC3CC(C2)CC1C3)N1CCNCC1 | 1.9 | – | 100% | 100% | t1/2 (Liver [1]): 0.802 h; CLH (Liver [3]): 14.4 µL/min; t1/2 (Liver [12]): 1.48 h |
| NC1CCN(C(=O)C[C@@H]2CCC[C@]3(C2)OOC2(O3)C3CC4CC(C3)CC2C4)CC1 (stereo not given in full) | 3.9 | Stable | – | – | half-life [7]: 1.41 h; microsomal CLint (in vitro): 8.2 µL/min/mg; PD100 (Plasmodium berghei [13]): 4 mg/kg/day |
| CC(C)(N)CNC(=O)C[C@@H]1CCC[C@]2(C1)OOC1(O2)C2CC3CC(C2)CC1C3.Cc1ccc(S(=O)(=O)O)cc1 (stereo not given in full) | – | – | – | – | Activity (Plasmodium berghei [8]): 100% |
| Cc1ncc2n1-c1ccc(Cl)cc1C(c1ccccc1F)=NC2 [MIDAZOLAM] | – | – | – | – | t1/2 (Liver [1]): 0.0275 h; CLH (Liver [3]): 420 µL/min |
| O=C(C[C@@H]1CCC[C@]2(C1)OOC1(O2)C2CC3CC(C2)CC1C3)N1CCOCC1 (stereo not given in full) | 6.8 | – | 0% | 0% | – |
| CN1CCN(C(=O)C[C@@H]2CCC[C@]3(C2)OOC2(O3)C3CC4CC(C3)CC2C4)CC1 (stereo not given in full) | 4.4 | – | 0% | 0% | – |
| NCCNC(=O)C[C@@H]1CCC[C@]2(C1)OOC1(O2)C2CC3CC(C2)CC1C3 (stereo not given in full) | 5.4 | – | 100% | – | Activity (Plasmodium berghei [14]): 100%; Activity (Plasmodium berghei [15]): 0%; half-life [7]: 1.41 h; microsomal CLint (in vitro): 8.2 µL/min/mg; Activity (Plasmodium berghei [16]): 0%; Activity (Plasmodium berghei [17]): 0%; Activity (Plasmodium berghei [18]): 0%; Activity (Plasmodium berghei [19]): 0%; Activity (Plasmodium berghei [20]): 0%; half-life [21]: 2.27 h; Activity (Plasmodium berghei [22]): 20%; Activity (Plasmodium berghei [23]): 20% |
| N[C@H]1CC[C@H](NC(=O)C[C@H]2CC[C@]3(CC2)OO[C@]2(O3)C3CC4CC(C3)CC2C4)CC1 | 4.5 | – | 80% | 80% | – |
| O=C(C[C@H]1CC[C@]2(CC1)OO[C@]1(O2)C2CC3CC(C2)CC1C3)N1CCOCC1 | 20.7 | – | 0% | 0% | – |
| CC(C)(CN)CNC(=O)C[C@H]1CC[C@]2(CC1)OO[C@]1(O2)C2CC3CC(C2)CC1C3 | 2.6 | Stable | 100% | 40% | t1/2 (Liver [1]): 2.68 h; CLH (Liver [3]): 4.3 µL/min |
| CC(C)(N)CNC(=O)C[C@H]1CC[C@]2(CC1)OO[C@]1(O2)C2CC3CC(C2)CC1C3 [OZ277] | 2.5 | Stable | 80 - 100% | 20 - 80% | Time (Plasmodium falciparum [9]): 1 h; t1/2 (Liver [1]): 2.13 h; Activity (Plasmodium berghei [16]): 0%; Activity (Plasmodium berghei [24]): 100%; CLH (Liver [3]): 5.4 µL/min; PD100 (Plasmodium berghei [13]): 10 mg/kg/day; ED50 (Plasmodium berghei [13]): 4 mg/kg/day; Time (Plasmodium falciparum [10]): 3 h |
| CC(C)(N)CNC(=O)C[C@@H]1CCC[C@]2(C1)OOC1(O2)C2CC3CC(C2)CC1C3 (stereo not given in full) | 3 | Stable | 60% | – | half-life [7]: 2.82 h; Activity (Plasmodium berghei [25]): 100%; microsomal CLint (in vitro): 4.1 µL/min/mg; Activity (Plasmodium berghei [16]): 0%; Activity (Plasmodium berghei [24]): 100%; PD100 (Plasmodium berghei [13]): 10 mg/kg/day; ED50 (Plasmodium berghei [13]): 6 mg/kg/day; solubility kinetic (physchem): 429 µM (≈ 168 µg/mL) |
